Measurements taken from patent US11696581B2, “Monoterpenoid/phenylpropanoid-containing compounds and methods of their making and use as seed treatments” (KITTRICH CORPORATION, priority 2016, dated 2023).

Legend:
Type in all cases: in vivo
[1] = system: Western corn rootworm larvae; assay: Western corn rootworm survival assay (treated corn seeds); conditions: corn seeds coated 1% weight/weight; 6 neonatal larvae per cup; 7 days at 28° C.; α=0.05; control survival 67.8±3.7%
Experimental: Solo® condiment cups with lids. Germination of seeds was performed by carefully applying 500 μL of de-ionized water in order to fully surround each seed with water at the bottom of the cup. Parafilm® wax was placed over the top of the cup to maintain moisture and encourage germination of the seeds. Cups containing moistened seeds were allowed to germinate in the dark for 3 days before the start of the assay. Six live neonatal Western corn rootworm larvae were carefully applied to the roots of germinated corn seeds for each cup. After applying the larvae to the roots, 30 g of dried soil, sieved with a 600-μm Fisher Brand sieve and moistened with 4.5 mL of water, was applied evenly throughout the cup. Organza was placed over the top of the cup and fastened in place with a cup lid. Cups were incubated at 28° C. in 40-50% humidity for 7 days. Surviving corn rootworm were enumerated and the average percentage survival was reported. A minimum of 10 replicates were performed for each treatment.

[2] = system: corn seeds; assay: Germination assays of coated corn seeds; conditions: 3 days dark then one week in soil, root mats and radicals emerged or not
Experimental: Germination of seeds was performed by carefully applying 500 μL of de-ionized water in order to fully surround each seed with water at the bottom of the cup. Parafilm wax was placed over the top of the cup to maintain moisture and encourage germination of the seeds. Cups containing moistened seeds were allowed to germinate in the dark for 3 days before 30 g of soil was introduced into the cup, with 4.5 mL of water added to the soil to moisten it. Seeds were allowed to grow for one week before removing the soil and assessing total germination. Germination was quantified as whether or not root mats and radicals emerged from the moistened seed casing. The total number of seeds in each cup (out of three seeds) that germinated were quantified. Over 4 replicates of this experiment were performed for each monoterpenoid derivative treatment screened.

[3] = system: Western corn rootworm larvae; assay: Western corn rootworm repellency assay (treated vs untreated corn sides); conditions: one week; for larval mortality (missing larvae declared dead) in repellency arena: one side treated seeds, control 20% declared dead; for repellency: larvae isolated from untreated end vs treated end: choice between treated and untreated corn, 30 larvae, control 52% treated side / 48% untreated side
Excerpt: Three treated seeds were germinated on one side of a plastic Genpack deli container (32 oz.) 5 days prior to infesting the container with western corn rootworm larvae. On the other side, three untreated seeds were germinated at the same time diagonally across from the treated seeds. Containers were infested by placing 30 rootworm into the middle of the container, on the top of the soil. Rootworm were allowed to choose which side to feed on primarily. Containers infested with western corn rootworm were incubated at 28° C. and 40±10% relative humidity for one week. After one week, containers were removed and soil was mechanically sifted through to quantify the number of living larvae. The total number of larvae present on the treated side vs. the untreated side were averaged from a minimum of three replicates. If repellency was observed (i.e. more rootworm found on the untreated side than the treated side), the experiment was repeated to confirm repellency in subsequent experiments. The number of rootworm missing were also enumerated. Data was averaged from a minimum of three replicates and over 90 larvae used in the total repellency assessment for each compound.

Molecule: O=C(O)CCC(=O)OC/C=C/c1ccccc1 [cinnamyl hydrogen succinate]
- larval survival compared to the control [1]: significantly lower larval survival than the control
- inhibition of germination of corn seedlings [2]: most significant inhibitors of germination of corn seedlings

Molecule: CCCCCCCCCCCCCC(=O)OCC=Cc1ccccc1 [cinnamyl myristate]
- larval survival compared to the control [1]: significantly lower larval survival than the control
- larval mortality (missing larvae declared dead) in repellency arena [3]: higher larval mortality that was statistically significant compared to the control

Molecule: CC(C)=CCCC(C)CCOC(=O)CC(C)CCC=C(C)C (stereo not shown) [citronellyl citronellate]
- larval survival compared to the control [1]: significantly lower larval survival than the control

Molecule: CC(C)=CCCC(C)CC(=O)OCCOC(=O)CC(C)CCC=C(C)C (stereo not shown) [ethylene dicitronellate, Ethylene dicitronellate]
- larval survival compared to the control [1]: significantly lower larval survival than the control
- larval mortality (missing larvae declared dead) in repellency arena [3]: higher larval mortality that was statistically significant compared to the control

Molecule: C=CCc1ccc(OC(=O)CC(C)CCC=C(C)C)c(OC)c1 (stereo not shown) [eugenyl citronellate]
- inhibition of germination of corn seedlings [2]: most significant inhibitors of germination of corn seedlings

Molecule: O=C(/C=C/c1ccccc1)OC1C(OC(=O)/C=C/c2ccccc2)C(OC(=O)/C=C/c2ccccc2)C(OC(=O)/C=C/c2ccccc2)C(OC(=O)/C=C/c2ccccc2)C1OC(=O)/C=C/c1ccccc1 (stereo not shown) [hexacinnamoyl inositol, hexacinnamoylinositol]
- repellency: larvae isolated from untreated end vs treated end [3]: higher number of larvae to be isolated from the untreated end compared to the treated end

Molecule: CC(C)=CCCC(C)CC(=O)OC1C(OC(=O)CC(C)CCC=C(C)C)C(OC(=O)CC(C)CCC=C(C)C)C(OC(=O)CC(C)CCC=C(C)C)C(OC(=O)CC(C)CCC=C(C)C)C1OC(=O)CC(C)CCC=C(C)C (stereo not shown) [inositol hexacitronellate, hexacitronelloylinositol]
- larval survival compared to the control [1]: significantly lower larval survival than the control
- larvae associated with the treated corn side ([3]; average, choice arena, control approximately 52%): 22%
- repellency: larvae isolated from untreated end vs treated end [3]: higher number of larvae to be isolated from the untreated end compared to the treated end
- inhibition of germination of corn seedlings [2]: most significant inhibitors of germination of corn seedlings

Molecule: Cc1ccc(C(C)C)c(OC(=O)/C=C/c2ccccc2)c1 [thymyl cinnamate]
- larval survival compared to the control [1]: significantly lower larval survival than the control
- repellency: larvae isolated from untreated end vs treated end [3]: higher number of larvae to be isolated from the untreated end compared to the treated end

Molecule: Cc1ccc(C(C)C)c(OC(=O)CCC(=O)O)c1 [thymyl hydrogen succinate]
- larval survival compared to the control [1]: significantly lower larval survival than the control

Molecule: eugenyl succinate
- larval survival compared to the control [1]: significantly lower larval survival than the control
- repellency: larvae isolated from untreated end vs treated end [3]: higher number of larvae to be isolated from the untreated end compared to the treated end
- larval mortality (missing larvae declared dead) in repellency arena [3]: higher larval mortality that was statistically significant compared to the control
